Data: BindingDB's records for doi:10.1016/s0960-894x(03)00461-x (Eli Lilly, 2003)

How the values were obtained:
Experiment in all cases: CDK Kinase Inhibition Assay
Settings in all cases: 25 °C
[1] = target: cAMP-dependent protein kinase catalytic subunit alpha (Bos taurus, UniProt P00517)
[2] = target: Calcium/calmodulin-dependent protein kinase type II subunit alpha (Rattus norvegicus, UniProt P11275)
[3] = target: Cyclin-dependent kinase 2/G1/S-specific cyclin-E1 (Homo sapiens, UniProt P24941)

Chain of Calcium/calmodulin-dependent protein kinase type II subunit alpha (P11275 whole entry): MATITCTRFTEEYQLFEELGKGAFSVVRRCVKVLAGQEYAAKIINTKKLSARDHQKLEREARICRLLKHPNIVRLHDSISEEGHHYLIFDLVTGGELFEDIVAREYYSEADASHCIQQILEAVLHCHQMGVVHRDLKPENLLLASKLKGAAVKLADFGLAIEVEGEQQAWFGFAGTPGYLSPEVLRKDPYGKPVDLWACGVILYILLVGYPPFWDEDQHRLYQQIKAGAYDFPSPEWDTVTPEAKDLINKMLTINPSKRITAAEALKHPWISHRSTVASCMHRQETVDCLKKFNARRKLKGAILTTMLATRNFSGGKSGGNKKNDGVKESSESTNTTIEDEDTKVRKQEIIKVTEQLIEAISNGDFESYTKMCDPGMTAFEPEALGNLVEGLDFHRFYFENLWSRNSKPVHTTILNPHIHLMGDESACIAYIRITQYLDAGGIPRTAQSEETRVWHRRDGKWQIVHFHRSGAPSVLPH

Compound | IC50 [1] [µM] | IC50 [2] [µM] | IC50 [3] [µM]
COc1ccc2c3c4c(c5c(ccc6ccn(C)c65)c3n(CCCN3CCSCC3)c2c1)C(=O)NC4=O [6-methoxy-18-methyl-3-[3-(thiomorpholin-4-yl)propyl]-3,13,18-triazahexacyclo[14.7.0.0^{2,10}.0^{4,9}.0^{11,15}.0^{17,21}]tricosa-1(16),2(10),4(9),5,7,11(15),17(21),19,22-nonaene-12,14-dione] | > 20 | > 20 | 
CCc1ccc2c(c1)[nH]c1c3ccc4ccn(C)c4c3c3c(c21)C(=O)NC3=O [6-ethyl-18-methyl-3,13,18-triazahexacyclo[14.7.0.0^{2,10}.0^{4,9}.0^{11,15}.0^{17,21}]tricosa-1(16),2(10),4(9),5,7,11(15),17(21),19,22-nonaene-12,14-dione] | > 20 |  | 0.36
COc1ccc2c3c4c(c5c(ccc6ccn(C)c65)c3n(CCCN3CCOCC3)c2c1)C(=O)NC4=O [6-methoxy-18-methyl-3-[3-(morpholin-4-yl)propyl]-3,13,18-triazahexacyclo[14.7.0.0^{2,10}.0^{4,9}.0^{11,15}.0^{17,21}]tricosa-1(16),2(10),4(9),5,7,11(15),17(21),19,22-nonaene-12,14-dione] | > 20 | > 20 | 
COc1ccc2c3c4c(c5c(ccc6ccn(C)c65)c3n(CCN3CCCCC3)c2c1)C(=O)NC4=O [6-methoxy-18-methyl-3-[2-(piperidin-1-yl)ethyl]-3,13,18-triazahexacyclo[14.7.0.0^{2,10}.0^{4,9}.0^{11,15}.0^{17,21}]tricosa-1(16),2(10),4(9),5,7,11(15),17(21),19,22-nonaene-12,14-dione] | > 20 | > 20 | 
COc1ccc2c3c4c(c5c(ccc6ccn(C)c65)c3n(CCCN3CCC(O)CC3)c2c1)C(=O)NC4=O [3-[3-(4-hydroxypiperidin-1-yl)propyl]-6-methoxy-18-methyl-3,13,18-triazahexacyclo[14.7.0.0^{2,10}.0^{4,9}.0^{11,15}.0^{17,21}]tricosa-1(16),2(10),4(9),5,7,11(15),17(21),19,22-nonaene-12,14-dione] |  |  | 2.1
Cn1ccc2ccc3c4[nH]c5ccc(F)cc5c4c4c(c3c21)C(=O)NC4=O [7-fluoro-18-methyl-3,13,18-triazahexacyclo[14.7.0.0^{2,10}.0^{4,9}.0^{11,15}.0^{17,21}]tricosa-1(16),2(10),4(9),5,7,11(15),17(21),19,22-nonaene-12,14-dione] | > 20 |  | 
Cc1ccc2c(c1)[nH]c1c3ccc4ccn(C)c4c3c3c(c21)C(=O)NC3=O [6,18-dimethyl-3,13,18-triazahexacyclo[14.7.0.0^{2,10}.0^{4,9}.0^{11,15}.0^{17,21}]tricosa-1(16),2(10),4(9),5,7,11(15),17(21),19,22-nonaene-12,14-dione] | > 20 |  | 
Cn1ccc2ccc3c4[nH]c5cc(F)ccc5c4c4c(c3c21)C(=O)NC4=O [6-fluoro-18-methyl-3,13,18-triazahexacyclo[14.7.0.0^{2,10}.0^{4,9}.0^{11,15}.0^{17,21}]tricosa-1(16),2(10),4(9),5,7,11(15),17(21),19,22-nonaene-12,14-dione] | > 20 |  | 

The next lines start with results.

IC50 [1] [µM] | IC50 [2] [µM] | Compound | IC50 [3] [µM]
> 20 |  | COC(=O)C1CCN(CCc2cccc3c2[nH]c2c4ccc5ccn(C)c5c4c4c(c32)C(=O)NC4=O)CC1 [methyl 1-(2-{18-methyl-12,14-dioxo-3,13,18-triazahexacyclo[14.7.0.0^{2,10}.0^{4,9}.0^{11,15}.0^{17,21}]tricosa-1(16),2(10),4(9),5,7,11(15),17(21),19,22-nonaen-5-yl}ethyl)piperidine-4-carboxylate] | 
> 20 |  | Cn1ccc2ccc3c4[nH]c5cccc(Br)c5c4c4c(c3c21)C(=O)NC4=O [8-bromo-18-methyl-3,13,18-triazahexacyclo[14.7.0.0^{2,10}.0^{4,9}.0^{11,15}.0^{17,21}]tricosa-1(16),2(10),4(9),5,7,11(15),17(21),19,22-nonaene-12,14-dione] | 
> 20 |  | Cc1cc2ccn(C)c2c2c3c(c4c5ccccc5[nH]c4c12)C(=O)NC3=O [18,23-dimethyl-3,13,18-triazahexacyclo[14.7.0.0^{2,10}.0^{4,9}.0^{11,15}.0^{17,21}]tricosa-1(16),2(10),4(9),5,7,11(15),17(21),19,22-nonaene-12,14-dione] | 
> 20 |  | Cn1ccc2ccc3c4[nH]c5c(CCCN6CCOCC6)cccc5c4c4c(c3c21)C(=O)NC4=O [18-methyl-5-[3-(morpholin-4-yl)propyl]-3,13,18-triazahexacyclo[14.7.0.0^{2,10}.0^{4,9}.0^{11,15}.0^{17,21}]tricosa-1(16),2(10),4(9),5,7,11(15),17(21),19,22-nonaene-12,14-dione] | 
> 20 |  | Cn1ccc2ccc3c4[nH]c5cc(C(F)(F)F)ccc5c4c4c(c3c21)C(=O)NC4=O [18-methyl-6-(trifluoromethyl)-3,13,18-triazahexacyclo[14.7.0.0^{2,10}.0^{4,9}.0^{11,15}.0^{17,21}]tricosa-1(16),2(10),4(9),5,7,11(15),17(21),19,22-nonaene-12,14-dione] | 
> 20 |  | Cn1ccc2ccc3c4[nH]c5c(CCN6CCSCC6)cccc5c4c4c(c3c21)C(=O)NC4=O [18-methyl-5-[2-(thiomorpholin-4-yl)ethyl]-3,13,18-triazahexacyclo[14.7.0.0^{2,10}.0^{4,9}.0^{11,15}.0^{17,21}]tricosa-1(16),2(10),4(9),5,7,11(15),17(21),19,22-nonaene-12,14-dione] | 
